Reference: the RepoRT retention time repository (doi:10.1002/minf.201400016)
Blank lines part the entries; values can stand above or below the compound they belong to.

Assay: RP, Waters ACQUITY UPLC HSS T3, 150 × 2.1 mm, 1.7 µm, 30 °C, 0.4 mL/min, estimated dead time 0.83 min; A: water + 0.2% formic acid; B: 2% water + 98% acetonitrile + 0.2% formic acid; gradient (min/%B) 0/0 2.5/0 7.5/10 10/100 12/100 18/0 25/0
Conditions: stereoisomer not certain

SMILES: COc1ccc2ncccc2c1 [6-methoxyquinoline]
LC retention time: 8.57 min

SMILES: NCCCC[C@H](N)C(=O)O [L-lysine]
LC retention time: 1.23 min

SMILES: NCCSCC(N)C(=O)O [L-thialysine]
LC retention time: 1.26 min

SMILES: Oc1cccc2cccnc12 [quinolin-8-ol]
LC retention time: 7.14 min

SMILES: Cn1c[n+](C2OC(CO)C(O)C2O)c2nc(N)[nH]c(=O)c21 (configuration not stated) [7-methylguanosine]
LC retention time: 5.75 min

SMILES: c1ccc2[nH]ccc2c1 [1H-indole]
LC retention time: 10.2 min

SMILES: O=C(COP(=O)(O)O)[C@@H](O)[C@H](O)[C@H](O)CO [D-fructose 1-phosphate]
LC retention time: 1.49 min

SMILES: O=C(O)c1cccc(O)c1 [3-hydroxybenzoic acid]
LC retention time: 9.31 min

SMILES: CCCCCCCCCCCCCCCC[C@@H](O)C(=O)O [(R)-2-hydroxystearic acid]
LC retention time: 12.4 min

SMILES: O=Cc1ccc(O)cc1 [4-hydroxybenzaldehyde]
LC retention time: 9.4 min

SMILES: NC(CCCC(=O)O)C(=O)O (configuration not stated) [2-aminoadipic acid]
LC retention time: 1.73 min

SMILES: CC(C)CC(=O)C(=O)O [4-methyl-2-oxopentanoic acid]
LC retention time: 9.39 min

SMILES: CCC(C)C(=O)C(=O)O (configuration not stated) [3-methyl-2-oxovaleric acid]
LC retention time: 9.23 min

SMILES: Cn1cc(CC(N)C(=O)O)c2ccccc21 (configuration not stated) [1-methyltryptophan]
LC retention time: 9.17 min

SMILES: O=C[C@@H](O)[C@H](O)[C@H](O)[C@H](O)CO [D-altrose]
LC retention time: 1.55 min

SMILES: O=C(O)CCCCC(=O)O [adipic acid]
LC retention time: 8.14 min

SMILES: Nc1cccc(C(=O)O)c1 [3-aminobenzoic acid]
LC retention time: 5.54 min

SMILES: O=C(O)Cn1ccc2ccccc21 [1H-indole-1-acetic acid]
LC retention time: 9.71 min

SMILES: CC(=CCNc1ncnc2c1ncn2C1OC(CO)C(O)C1O)CO (stereo not drawn) [9-ribosyl-trans-zeatin]
LC retention time: 8.91 min

SMILES: O=C(O)C=Cc1cccc(O)c1 [3-coumaric acid]
LC retention time: 9.54 min

SMILES: Cc1cc(Cl)ccc1OCC(=O)O [(4-chloro-2-methylphenoxy)acetic acid]
LC retention time: 10.3 min

SMILES: NCCCCCCCCN [1-8-diaminooctane]
LC retention time: 1.74 min

SMILES: CSC[C@H]1O[C@@H](n2cnc3c(N)ncnc32)[C@H](O)[C@@H]1O [5'-S-methyl-5'-thioadenosine]
LC retention time: 8.32 min

SMILES: C[n+]1cccc(C(=O)[O-])c1 [N-methylnicotinate]
LC retention time: 1.73 min

SMILES: O=c1ccc2cc(OC3OC(CO)C(O)C(O)C3O)c(O)cc2o1 (configuration not stated) [esculin hydrate]
LC retention time: 8.95 min

Continued, values first:

LC retention time: 1.63 min
SMILES: NC(=O)NC1NC(=O)NC1=O (configuration not stated) [allantoin]

LC retention time: 3.33 min
SMILES: NC(=O)c1cccnc1 [nicotinamide]

LC retention time: 10.9 min
SMILES: C=C1C(=O)OC2C1CCC(=C)C1CCC(=C)C12 (configuration not stated) [dehydrocostus lactone]

LC retention time: 1.73 min
SMILES: O=C(O)C1CCCN1 (configuration not stated) [proline]

LC retention time: 9.79 min
SMILES: O=c1c(O)c(-c2ccc(O)c(O)c2)oc2cc(O)cc(O)c12 [quercetin]

LC retention time: 1.62 min
SMILES: Nc1ccnc(=O)[nH]1 [cytosine]

LC retention time: 1.55 min
SMILES: NC(=O)NCCCC(N)C(=O)O (configuration not stated) [citrulline]

LC retention time: 9.27 min
SMILES: COc1cc(C(=O)O)ccc1O [vanillic acid]

LC retention time: 5.17 min
SMILES: CC(O)(CC(=O)O)C(=O)O (configuration not stated) [citramalic acid]

LC retention time: 9.92 min
SMILES: O=c1cc(-c2ccc(O)cc2)oc2cc(O)cc(O)c12 [apigenin]

LC retention time: 7.57 min
SMILES: CC(=CCNc1ncnc2nc[nH]c12)CO [trans-zeatin]

LC retention time: 9.53 min
SMILES: COc1cc(C=O)ccc1O [vanillin]

LC retention time: 9.98 min
SMILES: O=c1c(O)c(-c2ccc(O)cc2)oc2cc(O)cc(O)c12 [kaempferol]

LC retention time: 1.55 min
SMILES: C[N+](C)(C)CC(=O)[O-] [glycine betaine]

LC retention time: 10.7 min
SMILES: Cc1cc(O)c2c(c1)C(=O)c1cc(O)cc(O)c1C2=O [emodin]

LC retention time: 1.73 min
SMILES: OCC1OC(OCC2OC(O)C(O)C(O)C2O)C(O)C(O)C1O (configuration not stated) [gentiobiose]

LC retention time: 10.6 min
SMILES: CCC=CCC1C(=O)CCC1CC(=O)OC (configuration not stated) [methyl jasmonate]
